Data from US12370235B2, “Synthetic, non-natural antimicrobial peptides inspired by Staphylococcus auricularis delta toxin” (University of Saskatchewan, priority 2021, dated 2025).
Read-outs that look alike come from different tables or passages of the source. Ends that are not written are not given here.

What was measured:
[1] = system: MRSA ATCC 33592; assay: Three-dimensional NHEK skin model of MRSA infection and treatment; format: cell-based, Staphylococcus aureus
Procedure: To begin to assess the potential utility of STIP3-29 as a topical antimicrobial agent, the ability of the peptide to control MRSA infections of three-dimensional epidermal skin model prepared from normal, human-derived epidermal keratinocytes (NHEK) in vitro was evaluated. The multilayered and highly differentiated tissue was colonized with MRSA 33952 through a 4 h exposure to 5×10^5 CFU before removing non-adherent cells. It was observed that ˜7×10^3 CFU (−1%) of the MRSA cells colonized the tissues, and that the population expanded by 4-log units in a 16 h period (FIG. 6A). […] Amidation of the C-terminus is correlated with an increase in red blood cell lysis, observed by comparing of STIP3-1 to STIP3-28 and STIP3-3 to STIP3-29 whereas the inclusion of D-amino acids reduced the hemolytic activity.
Three-dimensional tissue infection and treatment. 3D EpiDerm skin tissues (MatTek EPI-200-AFAB; antifungal & antibiotic-free; 9 mm) contained within a plastic insert lined with a permeable 0.4 μm membrane were transferred to a 12 well plate containing dye- and antibiotic assay medium (600 μl per well). […] The number of colonies on each plated were counted and an average CFU/mL was determined for treated and untreated samples. […]

[2] = system: MRSA ATCC 33592; assay: DiSC3(5) membrane polarization assay; format: cell-based, Staphylococcus aureus; conditions: 1.56 to 25 μg/mL
Procedure: Membrane disruption and depolarization are commonly reported mechanisms of AMP action. Two indirect assays that rely on fluorescent dyes were employed to assess the interaction of STIP3-29 and D-STIP3-29 with bacterial membranes. First, changes to SYTOX fluorescence was measured when MRSA ATCC 33592 was treated with increasing peptide concentrations ranging from one fourth to four-fold the MIC. […] Next, DiSC3(5), a cationic dye that binds to polarized membranes was used to report on possible depolarization related to AMP treatment. […] Thus, without wishing to be bound by theory, a more conservative explanation of the results is that the cationic peptides increase membrane permeability to SYTOX and that the like-charge of the AMPs to the reporter of polarization may confound the interpretation of the indirect assay. For example, the AMPs may simply displace the self-quenching DiSC3(5) molecules from the membrane surface without causing depolarization.

[3] = system: S. aureus / MRSA (ATCC MP-2 panel); format: cell-based, Staphylococcus aureus
Procedure, shortened: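 MIC by broth microdilution in cation-adjusted Mueller Hinton broth: cultures diluted to OD 6×10^−4 and exposed to 2-fold peptide dilution series, standing overnight at 37° C. MIC = lowest peptide concentration with no visible growth. Panel: one methicillin-sensitive S. aureus plus 7 MRSA strains of distinct SCCmec genotypes.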

[4] = system: HeLa cells; format: cell-based; conditions: 24 h, alamarBlue
Procedure: Peptide cytotoxicity. In vitro cytotoxicity was measured using the 3D EpiDerm skin tissues and HeLa Cells using a fluorescent reporter of cell viability, alamarBlue (ThermoFisher Scientific). 3D EpiDerm skin tissues (MatTek EPI-200-AFAB) were transferred to a 12 well plate containing 600 μL of AFAB-assay medium supplemented with 10% v/v alamarBlue. […] HeLa cells were seeded in a 96-well plate (2×10^4 cells/per well) and incubated overnight at 37° C. and 5% CO2 in a humidified incubator to prepare wells at ˜50% confluency of adherent cells. After the incubation, spent DMEM was removed and cells were washed with PBS. alamarBlue-containing medium was prepared by mixing Phenol Red-free DMEM with alamarBlue solution at a 9:1 ratio and a 180 μl volume was added to each well. Cells were treated with peptides varying from 3.25 to 200 μg/mL and then incubated for 24 h. The fluorescence intensities of treated cultures were normalized to values measured for an untreated control group. After the 24 h incubation period, alamarBlue fluorescence was measured at 590 nm upon excitation at 560 nm using Varioskan Lux plate reader (Thermo Scientific) plate reader.

“TVGGLVKWILKTVKKFA-NH2 [STIP3-29, TVGGLVKWILKTVKKFA-NH2]” was tested, and the “control of MRSA population on 3D epidermal tissue” value ([1]; 25 μg/ml after colonization, 16 h) was “prevented the expansion of the MRSA population”, the average bacterial density ([1]; tissues treated with 25 μg/mL (n=6), infected at 7×10^3 CFU/mL, untreated 9×10^7 CFU/mL) was 6×10^3 CFU/mL and the “DiSC3(5) fluorescence change” value [2] was “dose-dependent increase in fluorescence”. The “MIC, MRSA” value [3] was 6.25 µg/mL, the “MIC, MRSA” value ([3]; molar) was 3.3 µM and the “fold improvement of activity (MIC)” value ([3]; relative to STIP3-1, S. aureus / MRSA) was 16 fold. For the same substance, the “IC50, HeLa cell survival” value [4] was 56 ± 1 µg/mL.
